ChEMBL document CHEMBL1201862, “PubChem BioAssay data set” (2004)
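1) Cells in 96-well plates. 2) Compound, 48 h, 5 concentrations. 3) Linear interpolation between surrounding doses. 4) Unreached endpoint = highest concentration. Here, GI50 denotes the concentration required for 50% inhibition of growth.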 Active and inactive are the calls of the source. Rule as the data show it: active = GI50 up to about 1.1 µM and inactive = higher.

Tests used:
Assay in all cases: NCI anticancer screen, dose series, 48 h
786-0 = test system: 786-0
A498 = test system: A498
A549 = test system: A549
ACHN = test system: ACHN
CAKI-1 = test system: CAKI-1
CCRF-CEM = test system: CCRF-CEM
COLO 205 = test system: COLO 205
DLD-1 = test system: DLD-1
DMS-114 = test system: DMS-114
DMS-273 = test system: DMS-273
EKVX = test system: EKVX
HCC 2998 = test system: HCC 2998
HCT-116 = test system: HCT-116
HCT-15 = test system: HCT-15
HL-60 = test system: HL-60
HOP-62 = test system: HOP-62
HOP-92 = test system: HOP-92
HT-29 = test system: HT-29
IGROV-1 = test system: IGROV-1
K562 = test system: K562
KM-20L2 = test system: KM-20L2
KM12 = test system: KM12
LOX IMVI = test system: LOX IMVI
LXFL 529 = test system: LXFL 529
M14 = test system: M14
M19-MEL = test system: M19-MEL
MOLT-4 = test system: MOLT-4
Malme-3M = test system: Malme-3M
NCI-H226 = test system: NCI-H226
NCI-H23 = test system: NCI-H23
NCI-H460 = test system: NCI-H460
NCI-H522 = test system: NCI-H522
OVCAR-4 = test system: OVCAR-4
OVCAR-5 = test system: OVCAR-5
OVCAR-8 = test system: OVCAR-8
RPMI-8226 = test system: RPMI-8226
RXF 393 = test system: RXF 393
RXF 631 = test system: RXF 631
SF-268 = test system: SF-268
SF-295 = test system: SF-295
SF-539 = test system: SF-539
SK-MEL-28 = test system: SK-MEL-28
SK-MEL-2 = test system: SK-MEL-2
SK-MEL-5 = test system: SK-MEL-5
SK-OV-3 = test system: SK-OV-3
SN12C = test system: SN12C
SNB-75 = test system: SNB-75
SR = test system: SR
SW-620 = test system: SW-620
TK-10 = test system: TK-10
U-251 = test system: U-251
UACC-257 = test system: UACC-257
UACC-62 = test system: UACC-62
UO-31 = test system: UO-31
XF498 = test system: XF498

## CCN(CC)[C@@H]1c2cc3c(cc2C(c2cc(OC)c(O)c(OC)c2)C2C(=O)CO[C@@H]21)OCO3 (stereo not given in full)
786-0
  GI50: > 100 µM (inactive)
A498
  GI50: > 100 µM (inactive)
A549
  GI50: > 100 µM (inactive)
ACHN
  GI50: > 100 µM (inactive)
CAKI-1
  GI50: > 100 µM (inactive)
CCRF-CEM
  GI50: > 100 µM (inactive)
COLO 205
  GI50: > 100 µM (inactive)
DLD-1
  GI50: > 100 µM (inactive)
DMS-114
  GI50: > 100 µM (inactive)
DMS-273
  GI50: > 100 µM (inactive)
EKVX
  GI50: > 100 µM (inactive)
HCC 2998
  GI50: > 100 µM (inactive)
HCT-116
  GI50: > 100 µM (inactive)
HCT-15
  GI50: > 100 µM
HL-60
  GI50: > 100 µM (inactive)
HOP-62
  GI50: > 100 µM (inactive)
HOP-92
  GI50: > 100 µM (inactive)
HT-29
  GI50: > 100 µM (inactive)
IGROV-1
  GI50: > 100 µM (inactive)
K562
  GI50: > 100 µM (inactive)
KM-20L2
  GI50: > 100 µM (inactive)
KM12
  GI50: > 100 µM (inactive)
LOX IMVI
  GI50: > 100 µM (inactive)
LXFL 529
  GI50: > 100 µM (inactive)
M14
  GI50: > 100 µM (inactive)
M19-MEL
  GI50: > 100 µM (inactive)
MOLT-4
  GI50: > 100 µM (inactive)
Malme-3M
  GI50: > 100 µM (inactive)
NCI-H226
  GI50: > 100 µM (inactive)
NCI-H23
  GI50: > 100 µM (inactive)
NCI-H460
  GI50: > 100 µM (inactive)
NCI-H522
  GI50: > 100 µM (inactive)
OVCAR-4
  GI50: > 100 µM (inactive)
OVCAR-5
  GI50: > 100 µM (inactive)
OVCAR-8
  GI50: > 100 µM (inactive)
RPMI-8226
  GI50: > 100 µM (inactive)
RXF 393
  GI50: 65.5 µM (inactive)
RXF 631
  GI50: > 100 µM (inactive)
SF-268
  GI50: > 100 µM (inactive)
SF-295
  GI50: > 100 µM (inactive)
SF-539
  GI50: > 100 µM (inactive)
SK-MEL-28
  GI50: > 100 µM (inactive)
SK-MEL-2
  GI50: > 100 µM (inactive)
SK-MEL-5
  GI50: > 100 µM (inactive)
SK-OV-3
  GI50: > 100 µM (inactive)
SN12C
  GI50: > 100 µM (inactive)
SNB-75
  GI50: > 100 µM (inactive)
SR
  GI50: > 100 µM (inactive)
SW-620
  GI50: > 100 µM (inactive)
TK-10
  GI50: > 100 µM (inactive)
U-251
  GI50: > 100 µM (inactive)
UACC-257
  GI50: > 100 µM (inactive)
UACC-62
  GI50: > 100 µM (inactive)
UO-31
  GI50: > 100 µM (inactive)
XF498
  GI50: > 100 µM (inactive)
